Assays:
[1] = test system: HAECs; test: Spheroid sprouting assay, HAECs; type: cell-based, human
Protocol: ECs spheroids were generated as described previously (Korff and Augustin, 1998, J Cell Biol 143, 1341-1352). ECs (1000 cells per spheroid) were suspended in EGM-2 medium containing 20% methocel (viscosity: 4000 cps, Sigma) and seeded in non-adherent round-bottom 96-well plates (Sigma). Under these conditions all suspended cells contributed to the formation of a single spheroid. The spheroids were harvested after 24 h embedded into collagen gels. Sprouting was initiated by adding C2C12 CM or EBM-2 medium containing VEGF (50 ng/mL). NMN (0.5 mM), NaHS (0.1 mM), DAPT (20 μM, Cayman Chemical) or SU5416 (10 μM, Sigma) were added to the media wherever mentioned. Angiogenic activity was quantified by measuring the sprout length that had grown out of each spheroid analyzing 8-10 spheroids per group.

[2] = test system: aortic rings from 18-month old mice; test: Aortic ring assay (ex vivo angiogenesis); type: cell-based, mouse; settings: 18-month old WT mice, VEGF 30 ng/mL, NMN 0.5 mM, 7 days, versus PBS
Protocol: Aortic ring assay was performed according to the published protocol (Baker et al., 2012, Nat Protoc 7, 89-104). Briefly, thoracic aortas from mice were excised and transferred to Opti-MEM media. All extraneous fat, tissue and branching vessels were removed with forceps and a scalpel under a dissection microscope. The aortas were cut into ˜0.5 mm wide rings and serum starved overnight by incubating in Opti-MEM at 37° C./5% CO2. Next day, each aortic ring was embedded in 50 μL collagen matrix in a 96-well plate and incubated at 37° C./5% CO2 for 1 h. After embedding, the vessel sprouting was stimulated by supplementing the rings with 150 μL of Opti-MEM culture containing FBS (2.5%), with or without VEGF (30 ng/mL), or FGF (30 ng/mL) and incubating at 37° C./5% CO2 for 7 days. NMN (500 μM) was added to the media wherever mentioned and replaced every 3 days. The resulting sprouts were stained with BS1 lectin-FITC (Sigma) and imaged using fluorescence microscope. The number and total area of sprouts originating from aortic rings were quantified by ImageJ software.

[3] = test system: MLECs from WT and ESKO mice; test: Apoptosis of serum-starved MLECs (Annexin V/PI); type: cell-based, mouse; settings: serum-starved overnight, SIRT1-dependent
Protocol: FIG. 38 is (A) a graph showing quantification of the relative cell number (n=12) of HUVECs incubated with PBS or NMN (0.5 mM) for 48 h in complete growth medium and cell number determined using flow cytometry. (B) a graph showing the number of apoptotic cells (Annexin V+/PI−) (n=12) when MLECs from WT and ESKO mice were serum-starved overnight, then assessed for apoptosis by Annexin V/PI staining and analyzed using flow cytometry. Data are expressed as mean±SEM. *p<0.05, **p<0.005, ***p<0.0005, ^δp<0.00005 by Student's t test (A), or two-way (B) ANOVA with Bonferroni's Multiple Comparisons Tests. (C) a schematic diagram of a model of how SIRT1 promotes sprouting angiogenesis. […]
HUVECs were treated with PBS (vehicle), NaHS (100 μM), NMN (500 μM) or NMN+NaHS for 6 h, followed by exposure to H2O2 (600 μM) for another 4 h. After treatments, the number of apoptotic cells was determined using Annexin V-FITC apoptosis detection kit (eBioscience) as per manufacturer's instructions. […] After mixing gently, the fluorescence intensity was detected with a flow cytometry (FACSCanto II Analyzer, BD Biosciences) at emission at 530 nm and 575 nm and excitation at 488 nm. Annexin-V and PI staining were detected with a flow cytometry (FACSCanto II Analyzer, BD Biosciences) at emission at 530 nm and 575 nm and excitation at 488 run.

[4] = test system: NAD^+; test: NAD+ measurements in tissues of NMN-treated mice; type: in vivo, mouse; settings: 18-month old mice, NMN 400 mg/kg/day in drinking water, two months; liver and gastrocnemius
Excerpt: SIRT1-iKO, SIRT1-Tg and SIRT1^STOP mice were described previously (Firestein et al., 2008, PLoS One 3, e2020; Price et al., 2012, Cell Metab 15, 675-690). Tie2Cre and Sirt1^flox/flox mice were purchased from Jackson Laboratory (Bar Harbor, ME). MCK-PGC-1α and MyogCre mice were gifts from Dr. Bruce Spiegelman (Dana Farber Cancer Center, MA) and Dr. Eric N. Olson (UT Southwestern, Dallas, TX), respectively. mT-STOP^flox/flox, Gfp mouse was generated in house by E.O.W., which consists of an allele driven by ubiquitous actin B promoter, which has loxP sites flanking membrane-targeted tandem dimer Tomato (mT) and transcriptional STOP cassette, followed by a GFP coding sequence. […] SIRT1-iKO mice were fed tamoxifen (360 mg/kg) diet for five weeks to elicit whole-body SIRT1 exon 4 excision as described previously (Price et al., 2012). […] Levels of NAD^+ and NADH levels were measured in EC and muscle homogenates using commercially available kit (NAD-NADH Glo, Promega) according to manufacturer's instructions. Alternatively, NAD^+ levels in muscle and liver were measured by assay in-house developed method (Uddin et al., 2016, Front Pharmacol 7, 258). […] The other aliquot was acidified with HCl, and then neutralized with NaOH on ice to quantify NAD^+. […] Total NADH and NAD^+ were quantified using a Bio-Rad Imark microplate reader.

## NC(=O)c1ccc[n+]([C@@H]2O[C@H](COP(=O)([O-])O)[C@@H](O)[C@H]2O)c1 [NMN, nicotinamide mononucleotide]
[1]; NT or SIRT1 siRNA, VEGF 50 ng/mL, NMN 0.5 mM
  ability of NMN to stimulate spheroid sprouting, dependence on SIRT1: SIRT1-dependent
[1]; SU5416 10 μM plus NMN 0.5 mM
  rescue of SU5416-blocked sprouting: not rescued
[1]; T3 or T6 siRNA, VEGF, NMN 0.5 mM
  VEGF-mediated spheroid sprouting after knockdown of SIRT3 and SIRT6: partially rescued
[2]
  number of VEGF-mediated outgrowths or sprouts per aortic ring: doubled
[3]
  apoptosis in ECs (Annexin V+/PI-): reduced apoptosis
[4]
  NAD^+ levels in tissues: raised NAD^+ levels

Source: patent US12616713B2, “Methods for enhancing vascular density” (priority 2016, dated 2026)
